# Source: US20090104148A1, “Treatment and prevention of joint disease” (priority 2007, published 2009)
# “Also recorded” adds a separate entry of the source.
# Key:
# Assay type in all cases: in vivo, Male Lewis rats
# ACL-transection model [1] = experiment: SF lavage lubricin levels by sandwich ELISA, early vs late etanercept, ACL-transection model, Example 4; conditions: 28 days following transection
# Description: (§1) Etanercept was administered to animals, and condroprotection was evaluated using an ACL-transection model. Male Lewis rats 7-8 weeks were assigned to either an ACL-transection group (n=5), 2 etanercept-treated ACLT groups (n=12, 6 in each group) or a sham surgery group (n=4). Etanercept was given subcutaneously at 0.5 mg/kg on days 8, and 15 following transection (Treatment A) or on days 15 and 22 (Treatment B). At 28 days following transection, ACL-transected (ACLT), contralateral (CL) and sham joints were harvested and lavaged. Lavaging was performed by injecting 50 μl of normal saline in the joint capsule, flexing and extending the joint for ten times and then aspirating 30 μl of fluid.
# (§2) SF lubricin levels were determined using a sandwich ELISA employing a lubricin-specific monoclonal antibody such as 9G3, and peanut agglutinin. Surface-associated lubricin coverage was calculated from 9G3-stained histological specimens. Quantitiation of lubricin staining intensity was calculated using Image Pro-Plus software (Media Cybernetics, MD, USA) with pre-determined threshold parameters and expressed as percentage of lubricin surface coverage. An average of lubricin surface coverage of the medial and lateral regions of femur and tibial cartilage surfaces was calculated.
# [2] = system: ACL-transection (ACLT) model; experiment: Ex-vivo joint coefficient of friction (μ), modified Stanton pendulum, ACL-transection model, Example 3; conditions: etanercept-treated ACLT joints vs non-treated ACLT joints; 0.5 mg/kg subcutaneously days 1-13; 2 weeks following ACLT
# Description: (§3) The following reagents and methods were used to evaluate inhibition of the effects of TNF-α by etanercept and the preservation of joint lubrication and decrease cartilage damage following an ACL injury. ACL-transection (ACLT) model and entanercept administration: Male Lewis rats 7-8 weeks were assigned to either an ACL-transection group (n=5), etanercept-treated ACL-transection group (n=5) or a sham-group (n=4). Etanercept was given subcutaneously at 0.5 mg/kg on days 1, 3, 5, 7, 9, 11, and 13 following ACLT. At 14 days following surgery, ACLT, contralateral (CL) and sham (S) joints were harvested and lavaged. Lavaging was performed by injecting 100 μl in the joint capsule, flexing and extending the joint for ten times and aspirating 50 μl of fluid. SF Lubricin levels: Lubricin levels were determined using sandwich ELISA employing a lubricin-specific monoclonal antibody, and peanut agglutinin (PNA). Ex-vivo joint μ: Articular joints' μ values were determined using modified Stanton pendulum (Elsaid K A et al, Arthritis Rheum 2007; 56:108-116). sGAG levels in SF lavages: Total sGAG levels were determined by Alcian blue binding assay.
# [3] = system: ACL-transection (ACLT) model; experiment: sGAG levels in SF lavages by Alcian blue binding assay, ACL-transection model, Example 3; conditions: etanercept-treated vs non-treated joints; 0.5 mg/kg subcutaneously days 1-13; 2 weeks following ACLT
# Description: as §3
# ACL-transection model [4] = experiment: Surface-associated lubricin coverage from 9G3-stained histological specimens, ACL-transection model, Example 4
# Description: as §1, §2
# ACL-transection model [5] = experiment: Ex-vivo joint coefficient of friction (μ), modified Stanton pendulum, ACL-transection model, Example 4; conditions: 28 days following transection
# [6] = system: ACL-transection (ACLT) model; experiment: SF lavage lubricin levels by sandwich ELISA, ACL-transection model, Example 3; conditions: etanercept-treated ACLT joints vs non-treated ACLT joints, 0.5 mg/kg subcutaneously days 1, 3, 5, 7, 9, 11, 13, 2 weeks following ACLT
# Description: as §3
substance,measurement,setting,value
etanercept,SF lavage lubricin levels,"ACL-transection model [1]; Treatment A (0.5 mg/kg s.c. days 8 and 15), ACLT joints, vs ACLT control and treatment B",significantly (p<0.01) higher
same,SF lavage lubricin levels in CL joints,"ACL-transection model [1]; contralateral (CL) joints, treatments A and B vs other groups",comparable across the different groups
same,ex-vivo joint coefficient of friction (μ),[2],significantly (p=0.021) lower
same,sGAG SF lavage levels,[3],significantly (p<0.001) lower
same,Lubricin coverage in the CL joints,"ACL-transection model [4]; contralateral (CL) joints, treatments A and B vs other groups, 28 days following transection",comparable across the different groups
same,lubricin layer in the superficial zone,"ACL-transection model [4]; inflamed rat joint following an ACL injury, ENBREL alone",reestablishes some of the lubricin layer in the superficial zone
same,Lubricin coverage of articular surfaces (percentage surface coverage),"ACL-transection model [4]; untreated ACLT joints compared to treatments A and B (0.5 mg/kg s.c.), 28 days following transection","significantly (p<0.01) lower than in treatment-A, treatment-B; also recorded: significantly (p<0.01) lower in the ACLT joints compared to treatments A, B"
same,mean coefficient of friction (μ),"ACL-transection model [5]; Treatment A (0.5 mg/kg s.c. days 8 and 15), ACLT joints",6.5*10^−4
same,mean coefficient of friction (μ),"ACL-transection model [5]; Treatment A (0.5 mg/kg s.c. days 8 and 15), CL joints",4.7*10^−4
same,mean coefficient of friction (μ),"ACL-transection model [5]; Treatment B (0.5 mg/kg s.c. days 15 and 22), ACLT joints",6.6*10^−4
same,mean coefficient of friction (μ),"ACL-transection model [5]; Treatment B (0.5 mg/kg s.c. days 15 and 22), CL joints",4.9*10^−4
same,"joints' μ values, treatments A and B vs untreated ACLT and sham joints",ACL-transection model [5]; treatments A and B,lower than the μ values of ACLT joints
same,Lubricin SF lavage levels,[6],significantly (p<0.001) higher
same,Lubricin SF lavage levels,[6]; listed as ENBREL™,upregulation of lubricin
